# Reference: patent US20110237606A1, “3-Deazaneplanocin Derivatives” (AGENCY OF SCIENCE, TECHNOLOGY AND RESEARCH, priority 2008, published 2011)
# Where a name gives a salt, the structure may show the parent alone.
# Experiments:
# [1] = Maximum tolerated dose in vivo; conditions: compared to DZNep
# [2] = tested on: HCT-116 colorectal carcinoma xenograft; test: In vivo efficacy in mouse HCT-116 colorectal carcinoma xenograft model
# Description: The in vivo efficacy and toxicity of D3 was evaluated in a mouse HCT-116 colorectal carcinoma xenograft model.
# Female athymic BALB/c nude mice (ARC, West Australia), 18-20 weeks of age, are fed with sterilized tap water (ad libitum water) and irradiated standard rodent diet consisting of: 19% protein, 5% fat, and 5% fiber. Mice are housed in individual ventilated cages on 12-hour light cycle at 21-22° C. and 40-60% humidity. Biological Resource Centre, Biopolis (BRC) complies with the recommendations of the guide for care and use of Laboratory Animals with respect to restraint, husbandry, surgical procedures, feed and fluid regulation, and veterinary care. The animal cares and use program (#070276) at BRC was Institutional Animal Care and Use Committee (IACUC) accredited.
# D3 was provided in powder form, dissolved in 10% DMSO in sterile 1×PBS and stored in −20° C. Every mouse will receive a dose of 30-60 mg per kilogram body weight by intraperitoneal injection (ip).
# Mice were implanted subcutaneously in the left flank with 5×10^6 cells of HCT-116 parental human colon carcinoma. The tumors were allowed to grow for 8 days and thereafter monitored every 2-3 days by caliper.
# On the day 1, nude mice were divided into 2 groups according to tumor volume to ensure tumor volume evenly distributed into each group. Each group comprised 7 animals. Drug treatment was initiated on day 1. D3 is administered ip at doses of 30 mg/kg for 7 days followed by 60 mg/kg for another 5 days on once-a-day basis. Another group of mice received receive only vehicle by ip route. […] The study was terminated on Day 14.
# Estimated tumor volume was calculated using the formula:
# Tumor volume (mm^3)=(w^2×l)/2
# where w=width and l=length in mm of an HCT-116 carcinoma.
# Compound efficacy was assessed by the tumor growth inhibition (TGI) method in which tumor volume of treatment groups are compared to the vehicle controls. The percent tumor growth inhibition (% TGI) is calculated as follows:
# % TGI=[…]×100
# where: • Cday 1=median tumor volume for the control group (vehicle) on day 1 • Cday a=median tumor volume for the control group (vehicle) on day a • Tday a=median tumor volume for a treatment group on day a Animals classified as NTRD (non-treatment-related deaths) were excluded from TGI calculations.
# The two sample t-test was used to determine the statistical significance of body weight changes and tumor volumes between groups. Statistical analyses were conducted at a p level of 0.05. SPSS was used for all statistical analyses and graphic presentations.
# HCT115 ER-E2F1 cells = test: E2F1-induced apoptosis assay (ER-E2F1 activated by 4-OHT), FACS subG1; format: cell-based
# From the text: Two assays were used to measure the compound's activity in induce apoptosis. The first assay measures the activity of compound to activate E2F1-induced apoptosis. In this assay, transcription factor E2F1 was engineered with ER receptor ligand binding domain. Addition of 4-OHT will be able to activate ER-E2F1 complex activity.
# Fluorescence activated cell sorting (FACS) also known as flow cytometry is the technique used to determine apoptosis in this set of experiments. Apoptosis is indicated by cell populations with DNA content in the subG1 range. To determine the activity of these compounds, the inventors used HCT115 ER-E2F1 cells to determine the activity of the compound in inducing E2F1-dependent apoptosis. In this assay, addition of 4-OHT ligand will activate E2F1. DZNep has been show previously to activate OHT-induced apoptosis in this system.
compound,measurement,setting,value
"COCC1=C[C@@H](n2cnc3c(N)ncnc32)[C@H](O)[C@@H]1O [Compound 25, (1S,2R,5R)-5-(6-amino-9H-purin-9-yl)-3-(methoxymethyl)cyclopent-3-ene-1,2-diol hydrochloride]",maximum tolerated dose (MTD),[1],higher
same,tumor volume versus vehicle group,"[2]; D3 ip 30 mg/kg 7 days then 60 mg/kg 5 days, p=0.033",statistically significantly smaller
same,tumor growth inhibition,"[2]; D3 ip 30 then 60 mg/kg, day 7",about 49%
same,tumor growth inhibition,"[2]; D3 ip 30 then 60 mg/kg, day 9",~56%
same,tumor growth inhibition,"[2]; D3 ip 30 then 60 mg/kg, day 12",~54%
same,tumor growth inhibition,"[2]; D3 ip 30 then 60 mg/kg, end point day 14",~54%
same,ability to cause apoptosis in the induction of E2F1-dependent apoptosis,HCT115 ER-E2F1 cells; compared with DZNep,as effectively as DZNep
same,E2F1 Induced apoptosis (+4-OHT) % Apoptosis,HCT115 ER-E2F1 cells; with 4-OHT (value in parentheses),60%
"Nc1ncnc2c1ncn2[C@@H]1CC[C@@H](O)[C@H]1O [Compound I3, (1R,2S,3R)-3-(6-amino-9H-purin-9-yl)cyclopentane-1,2-diol]",tumor growth inhibition,"[2]; I3 30 mg/kg, day 6",about 40%
same,tumor growth inhibition,"[2]; I3 30 mg/kg, day 8",~43%
same,tumor growth inhibition,"[2]; I3 30 mg/kg, day 10",~31%
same,tumor growth inhibition,"[2]; I3 30 mg/kg, day 13",~35%
same,tumor growth inhibition,"[2]; I3 30 mg/kg, end point day 14",~34%
same,tumor volume versus vehicle group,"[2]; I3 30 mg/kg, p=0.037",statistically significantly smaller
same,tumor volume versus vehicle group,"[2]; I3 60 mg/kg, p=0.000",statistically significantly smaller
same,tumor growth inhibition,"[2]; I3 60-80 mg/kg, day 6",about 50%
same,tumor growth inhibition,"[2]; I3 60-80 mg/kg, day 8",~65%
same,tumor growth inhibition,"[2]; I3 60-80 mg/kg, day 10",~60%
same,tumor growth inhibition,"[2]; I3 60-80 mg/kg, day 13",~68%
same,tumor growth inhibition,"[2]; I3 60-80 mg/kg, end point day 14",~63%
